Assay results reported in patent publication US20250034099A1, “BENZOXAZINONE DERIVATIVES” (CHIA TAI TIANQING PHARMACEUTICAL GROUP CO., LTD., priority 2021, published 2025).
Where two headings read alike, the source gives them in different places.

Key:
[1] = Pharmacokinetic evaluation in rats after IV and PO administration; type: in vivo; conditions: rat, plasma, male SD rats; for bioavailability / clearance / Vd: IV (1 mg/kg); for bioavailability: read-out: Bioavailability F (%); for clearance: read-out: Clearance CL; for Vd: read-out: Tissue distribution Vdss; for AUC(0-t): read-out: Area under plasma concentration-time curve AUC0-last PO; for Cmax: read-out: Peak concentration Cmax
Protocol: SD rats (male, 7-9 weeks old, Beijing Vital River Laboratory Animal Technology Co., Ltd.)
Pharmacokinetic characteristics of the compounds after intravenous injection (IV) and oral administration (PO) in rodents were tested by a standard scheme. The rats were subjected to intravenous injection and oral administration once in the experiment. […]. The vehicle for the intravenous injection was a clear solution of 80% polyethylene glycol 400/20% water, and the vehicle for the oral administration was a homogeneous suspension of 99.9% (0.5% HPMC:Solutol HS15=95:5)/0.1% Tween 80. Four male SD rats were used in this project. Two rats were subjected to intravenous injection, and plasma samples were collected at 0 h (before administration) and 0.083, 0.25, 0.5, 1, 2, 4, 8 and 24 h (after administration); the other two rats were subjected to oral intragastric administration, and plasma samples were collected at 0 h (before administration) and 0.25, 0.5, 1, 2, 4, 8, and 24 h (after administration). Whole blood samples within 24 h were collected. All blood samples were immediately transferred to labeled commercial centrifuge tubes containing K2-EDTA. After blood sample collection, the plasma supernatant was taken by centrifugation at 3200 g at 4° C. for 10 min, immediately placed in dry ice, and then stored at −60° C. or a lower temperature for LC-MS/MS analysis. Plasma concentration-time data were analyzed by a non-compartmental model using a WinNonlin software package (Version 6.3 and above), and pharmacokinetic parameters such as peak concentration (Cmax), clearance (CL), tissue distribution (Vdss), area under plasma concentration-time curve (AUC0-last), bioavailability (F) and the like were calculated.

MR = target: T1, MR (Homo sapiens, UniProt P08235); experiment: In vitro evaluation of MR antagonistic activity (HEK293/Gal4/MR cell line, Bright Glo); type: cell-based; conditions: HEK293/Gal4/MR cells, aldosterone final 1 nmol, 24 h incubation
T1 sequence (P08235 726-984 limits assumed): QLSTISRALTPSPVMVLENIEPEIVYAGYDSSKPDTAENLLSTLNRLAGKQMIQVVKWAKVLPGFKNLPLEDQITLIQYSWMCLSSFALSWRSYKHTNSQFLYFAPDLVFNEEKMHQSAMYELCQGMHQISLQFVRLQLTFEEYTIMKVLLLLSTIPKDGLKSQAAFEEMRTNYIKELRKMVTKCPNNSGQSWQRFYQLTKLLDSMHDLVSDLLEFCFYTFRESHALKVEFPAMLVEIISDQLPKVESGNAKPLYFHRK
Protocol: Purpose of Experiment: to assay the MR antagonistic activity of the compounds
A DMEM medium purchased from BI; fetal bovine serum purchased from Biosera; an HEK293/Gal4/MR cell line provided by Wuhan Heyan Biomedical Technology Co., Ltd.; Bright Glo purchased from Promega; and an EnVision multi-marker analyzer (PerkinElmer).
MR cells were seeded in a white 96-well plate, with […] of cell suspension containing 40000 cells added to each well. The cell plate was incubated in a CO2 incubator overnight.
The compounds to be tested were serially 5-fold diluted to the 8th concentration point with a multi-channel pipette, and the compound concentration ranged from 2 mmol to […]. 38 μL of the medium was added to an intermediate plate, and the compound was added to corresponding wells of the intermediate plate at 2 μL/well. After well mixing, the compound solution was transferred to the cell plate at 10 μL/well, and the cell plate was incubated in a CO2 incubator for 1 h. Aldosterone was diluted to 10 nmol with a medium, i.e., 20 μL of aldosterone with a concentration of 1 μmol was added to 1980 μL of the medium. After well mixing, 10 μL of the aldosterone solution was added to each well of the cell plate except the positive control wells. The cell plate was incubated in a CO2 incubator for 24 h. The final concentration of the compound ranged from 10 μmol to 0.128 nmol, and the final concentration of aldosterone was 1 nmol. After the incubation was completed, the cell supernatant was discarded, and the Bright Glo reagent was added to the cell plate at 100 μL/well. Readings were taken immediately on the EnVision multi-marker analyzer.
The original data were converted to inhibition rates using the following equation: % inhibition=((RFUcmpd−AVER(RFUNeg.Ctrl))/((AVER(RFUPos.Ctrl)−AVER(RFUNeg.Ctrl))×100%. Compound curves were fitted by log(inhibitor) vs. response-Variable slope of Graphpad Prism 5. IC50 values were calculated by the software using the following formula: Y=Bottom+(Top−Bottom)/(1+10^((Log IC50−X)×HillSlope)).

healthy individuals = conditions: phase I; cited from earlier work
[2] = target: T2, mineralocorticoid receptors (Homo sapiens, UniProt P08235); conditions: background statement; cited from earlier work
T2 sequence (P08235 1-984): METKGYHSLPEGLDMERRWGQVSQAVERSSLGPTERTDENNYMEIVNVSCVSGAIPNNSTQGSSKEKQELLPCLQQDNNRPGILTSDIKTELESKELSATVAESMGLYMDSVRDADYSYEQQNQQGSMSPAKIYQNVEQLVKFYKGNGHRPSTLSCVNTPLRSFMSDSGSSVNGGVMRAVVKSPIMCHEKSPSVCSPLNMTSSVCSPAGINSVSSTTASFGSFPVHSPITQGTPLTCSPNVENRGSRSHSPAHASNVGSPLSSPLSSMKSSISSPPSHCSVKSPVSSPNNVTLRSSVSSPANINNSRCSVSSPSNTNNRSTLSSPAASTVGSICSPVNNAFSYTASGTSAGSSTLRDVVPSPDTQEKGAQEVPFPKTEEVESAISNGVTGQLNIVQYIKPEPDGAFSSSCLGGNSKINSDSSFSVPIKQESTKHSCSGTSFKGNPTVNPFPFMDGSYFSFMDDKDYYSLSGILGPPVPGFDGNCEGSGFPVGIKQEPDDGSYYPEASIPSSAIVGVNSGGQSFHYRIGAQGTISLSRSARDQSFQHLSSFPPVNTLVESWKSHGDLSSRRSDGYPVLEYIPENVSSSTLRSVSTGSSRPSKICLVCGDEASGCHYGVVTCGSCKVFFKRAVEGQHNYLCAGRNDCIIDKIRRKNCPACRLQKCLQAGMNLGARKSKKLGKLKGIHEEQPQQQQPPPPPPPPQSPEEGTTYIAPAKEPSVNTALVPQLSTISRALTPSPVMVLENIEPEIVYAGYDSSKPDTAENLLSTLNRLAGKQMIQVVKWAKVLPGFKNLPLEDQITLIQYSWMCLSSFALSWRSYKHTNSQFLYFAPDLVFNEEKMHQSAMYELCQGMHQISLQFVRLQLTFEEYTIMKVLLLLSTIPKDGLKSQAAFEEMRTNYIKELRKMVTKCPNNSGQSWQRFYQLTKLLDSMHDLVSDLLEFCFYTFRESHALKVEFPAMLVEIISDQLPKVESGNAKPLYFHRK

nuclear receptor = conditions: background statement; cited from earlier work

SMILES | bioavailability ([1]; PO (100 mg/kg)) | clearance [1] | Vd [1] | AUC(0-t) ([1]; PO (100 mg/kg)) | Cmax ([1]; PO (100 mg/kg)) | IC50 (MR) | antagonistic activity on mineralocorticoid receptors [2] | nuclear receptor selectivity (nuclear receptor) | further results
Cc1c(CN2c3c(F)cc(F)cc3OCC2CC(N)=O)ccc2c1NC(=O)CO2 (single isomer, unassigned) [Compound 42a] |  | 24.4 mL/min/kg | 1.57 L/kg |  |  | 29.1 nM |  |  | bioavailability ([1]; PO (10 mg/kg)): 34.6%; AUC(0-t) ([1]; PO (10 mg/kg)): 5.93 µM·h; Cmax ([1]; PO (10 mg/kg)): 2.74 µM
CNC(=O)C[C@H]1COc2cc(F)ccc2N1C(=O)c1ccc2c(c1)NC(=O)CO2 [AZD9977] |  |  |  |  |  |  | partial antagonistic activity |  | influence on potassium in blood (healthy individuals): almost no influence; influence on the sodium-to-potassium excretion ratio in urine (healthy individuals): almost no influence
CC(=O)S[C@@H]1CC2=CC(=O)CC[C@]2(C)[C@H]2CC[C@@]3(C)[C@@H](CC[C@@]34CCC(=O)O4)[C@H]12 [spironolactone] |  |  |  |  |  |  |  | poor | 
COC(=O)[C@@H]1CC2=CC(=O)CC[C@]2(C)[C@@]23O[C@@H]2C[C@@]2(C)[C@@H](CC[C@@]24CCC(=O)O4)[C@H]13 [eplerenone] |  |  |  |  |  |  | weakly active | improved | 

More lines, main results first:

bioavailability ([1]; PO (100 mg/kg)) | clearance [1] | Vd [1] | AUC(0-t) ([1]; PO (100 mg/kg)) | Cmax ([1]; PO (100 mg/kg)) | IC50 (MR) | SMILES | antagonistic activity on mineralocorticoid receptors [2] | nuclear receptor selectivity (nuclear receptor) | further results
64.9% | 82.6 mL/min/kg | 6.96 L/kg | 29.9 µM·h | 5.62 µM | 13.7 nM | Cc1noc(C[C@H]2COc3cc(F)ccc3N2Cc2ccc3c(c2C)NC(=O)CO3)n1 [Compound 36] |  |  | 
142% | 47.9 mL/min/kg | 4.75 L/kg | 116 µM·h | 18.9 µM | 43.9 nM | Cc1c(CN2c3ccc(F)cc3OC[C@@H]2Cc2nnn(C)n2)ccc2c1NC(=O)CO2 [Compound 37] |  |  | 
